The subject of assay [1] is Trichophyton mentagrophytes. The experiment in a line: Antimicrobial activity against Trichophyton mentagrophytes ATCC 9172 by towfold serial dilution method. It counts as functional.
Assay [2] has as its system Candida albicans. The experiment in a line: Antimicrobial activity against Candida albicans ATCC 10231 by towfold serial dilution method. It counts as functional.
The test system of assay [3] is Mycolicibacterium smegmatis. Put plainly: Antimicrobial activity against Mycobacterium smegmatis ATCC 607 by towfold serial dilution method. It counts as functional.
The test system of a further assay is Cryptococcus neoformans. The experiment in a line: Antimicrobial activity against Cryptococcus neoformans ATCC 32264 by towfold serial dilution method. It counts as functional.
For assay [4], the system named is Candida albicans. The experiment in a line: Antimicrobial activity against Candida albicans WH by towfold serial dilution method. It counts as functional.
For the next assay, the system named is Saccharomyces cerevisiae. The experiment in a line: Antimicrobial activity against Saccharomyces cerevisiae ATCC 9763 by towfold serial dilution method. It counts as functional.
The test system of another assay is Staphylococcus aureus. Put plainly: Antimicrobial activity against Staphylococcus aureus ATCC 6538 by towfold serial dilution method. It counts as functional.
The next assay has as its system Helminthosporium. The experiment in a line: Antimicrobial activity against Helminthosporium sp. NRRL 4671 by towfold serial dilution method. It counts as functional.
A further assay concerns Escherichia coli. The experiment in a line: Antimicrobial activity against Escherichia coli ATCC 10536 by towfold serial dilution method. It counts as functional, organism-based.
Another assay relates to Trametes sanguinea. Put plainly: Antimicrobial activity against Pycnoporus sanguineus ATCC 14622 by towfold serial dilution method. It counts as functional.
For the next assay, the system named is Aspergillus niger. The experiment in a line: Antimicrobial activity against Aspergillus niger ATCC 16888 by towfold serial dilution method. It counts as functional, organism-based.
Assay [5] concerns Candida albicans. The experiment in a line: Antimicrobial activity against Candida albicans NIH B311 by towfold serial dilution method. It counts as functional.
In another assay the test system is Pseudomonas aeruginosa. The experiment in a line: Antimicrobial activity against Pseudomonas aeruginosa ATCC 15442 by towfold serial dilution method. It counts as functional, organism-based.
For another assay, the system named is Bacillus subtilis. Put plainly: Antimicrobial activity against Bacillus subtilis ATCC 6633 by towfold serial dilution method. It counts as functional.

Converted amounts (≈) assume the structure as drawn. The source made the active and inactive calls.

One may read the MIC as the smallest concentration in the dilution series that meets the test's criterion for growth inhibition. A higher MIC goes with weaker potency.

For the molecule `CC(C)=CCc1c[nH]c2ccccc12`, the MIC came out at 1.56 µg/mL (≈ 8.42 µM) in assay [1]; 25 µg/mL (≈ 135 µM) against Candida albicans [2]; 3.12 µg/mL (≈ 16.8 µM) in assay [3]; 12.5 µg/mL (≈ 67.5 µM) with Cryptococcus neoformans; 25 µg/mL (≈ 135 µM) with Candida albicans [4]; 12.5 µg/mL (≈ 67.5 µM) against Saccharomyces cerevisiae. Moreover, the MIC against Staphylococcus aureus came out at 12.5 µg/mL (≈ 67.5 µM); against Helminthosporium, 0.78 µg/mL (≈ 4.21 µM); against Trametes sanguinea it was 12.5 µg/mL (≈ 67.5 µM); against Candida albicans [5], 25 µg/mL (≈ 135 µM); with Bacillus subtilis, 12.5 µg/mL (≈ 67.5 µM). The outcome in the assay on Escherichia coli, in the assay on Aspergillus niger and with Pseudomonas aeruginosa was inactive.

For the origin of these results see ChEMBL document CHEMBL1147273, “3-Dimethylallylindole: an antibacterial and antifungal metabolite from Monodora tenuifolia” (1986).
